# Measurements taken from patent US11472805B2, “Tricyclic compounds and their use as phosphodiesterase inhibitors” (Pfizer Inc., priority 2015, dated 2022).
# pIC50: −log10 of the molar value. Like-named read-outs stand apart in the source and are kept apart here.
# Tests used:
# [1] = target: Human PDE4B1 (Homo sapiens (Human), UniProt Q07343, S133E/S654A/S659A/S661A); experiment: PDE4B1 Scintillation Proximity Assay (SPA), inhibition of enzyme activity; format: biochemical; details: read-out: Human PDE4B FL
# Chain of Human PDE4B1 (Q07343 122-736 S133E/S654A/S659A/S661A): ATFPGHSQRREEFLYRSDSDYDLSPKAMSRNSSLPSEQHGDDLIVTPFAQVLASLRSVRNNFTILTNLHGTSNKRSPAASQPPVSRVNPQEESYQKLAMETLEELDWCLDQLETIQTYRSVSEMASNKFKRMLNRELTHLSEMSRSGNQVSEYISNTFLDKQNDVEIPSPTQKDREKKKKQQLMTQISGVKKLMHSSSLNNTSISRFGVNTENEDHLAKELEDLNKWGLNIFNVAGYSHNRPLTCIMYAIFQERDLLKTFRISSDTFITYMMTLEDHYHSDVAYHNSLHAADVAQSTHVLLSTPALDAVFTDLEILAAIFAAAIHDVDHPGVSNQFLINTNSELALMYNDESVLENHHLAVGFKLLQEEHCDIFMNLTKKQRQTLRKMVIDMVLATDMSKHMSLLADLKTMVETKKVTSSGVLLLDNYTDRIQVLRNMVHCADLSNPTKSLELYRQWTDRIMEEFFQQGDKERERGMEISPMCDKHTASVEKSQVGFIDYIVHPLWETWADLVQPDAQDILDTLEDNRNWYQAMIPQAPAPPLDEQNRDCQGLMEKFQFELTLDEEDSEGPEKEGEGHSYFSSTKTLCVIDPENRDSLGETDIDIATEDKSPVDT
# Protocol: (§1) The PDE4A, PDE4B, PDE4C and PDE4D binding affinity for the compounds of the present invention was determined utilizing the following biological assay(s):
# The recombinant Bacmid was isolated and used to transfect insect cells to generate a viral stock. To generate cell paste for purification, insect cells were infected with the virus stock and cells were harvested 72 hours after infection as described in Seeger, T. F. et al., Brain Research 985 (2003) 113-126. Insect cell paste was lysed and after centrifugation, the supernatant was chromatographed on Ni-NTA agarose (Qiagen) as described in Seeger, T. F. et al., Brain Research 985 (2003) 113-126. Ni-NTA agarose eluting fractions containing PDE4 were pooled, diluted with Q buffer A (20 mM Tris HCl pH 8, 5% glycerol, 1 mM TCEP) to reduce NaCl to ˜100 mM and loaded on a Source 15Q (GE Healthcare) column. After washing with Q buffer A/10% buffer B to baseline, PDE4D was eluted with a gradient from 10% to 60% of Buffer B (20 mM Tris HCl pH 8, 1 M NaCl, 5% glycerol, 1 mM TCEP). PDE4D fractions were analyzed by SDS-PAGE Coomassie blue staining, pooled based on purity, frozen and stored at −80° C.
# (§2) The PDE4A3, PDE4B1, PDE4C1 and PDE4D3 assays use the Scintillation Proximity Assay (SPA) technology to measure the inhibition of human recombinant PDE4A1, PDE4B3, PDE4C1, and PDE4D3 enzyme activity by compounds in vitro. The PDE4A1, PDE4B3, PDE4C1, and PDE4D3 assays are run in parallel using identical parameters, except for the concentration of enzyme ([…]). The assays are performed in a 384-well format with 50 uL assay buffer (50 mM TRIS pH7.5; 1.3 mM MgCl2; 0.01% Brij) containing enough PDE4A3, PDE4B1, PDE4C1, and PDE4D to convert ˜20% of substrate (1 μM cAMP consisting of 20 nM 3H-cAMP+[…] cold cAMP) and a range of inhibitors. Reactions are incubated for 30 min at 25° C. The addition of 20 uL of 8 mg/ml yitrium silicate SPA beads (Perkin Elmer) stops the reaction. The plates are sealed (TopSeal, Perkin Elmer) and the beads are allowed to settle for 8 hrs, after which they are read on the Trilux Microbeta overnight.
# [2] = target: human PDE4D3 (Homo sapiens (Human), UniProt Q08499); experiment: PDE4D3 Scintillation Proximity Assay (SPA), inhibition of enzyme activity; format: biochemical; details: read-out: Human PDE4D FL
# Chain of human PDE4D3 (Q08499 186-808): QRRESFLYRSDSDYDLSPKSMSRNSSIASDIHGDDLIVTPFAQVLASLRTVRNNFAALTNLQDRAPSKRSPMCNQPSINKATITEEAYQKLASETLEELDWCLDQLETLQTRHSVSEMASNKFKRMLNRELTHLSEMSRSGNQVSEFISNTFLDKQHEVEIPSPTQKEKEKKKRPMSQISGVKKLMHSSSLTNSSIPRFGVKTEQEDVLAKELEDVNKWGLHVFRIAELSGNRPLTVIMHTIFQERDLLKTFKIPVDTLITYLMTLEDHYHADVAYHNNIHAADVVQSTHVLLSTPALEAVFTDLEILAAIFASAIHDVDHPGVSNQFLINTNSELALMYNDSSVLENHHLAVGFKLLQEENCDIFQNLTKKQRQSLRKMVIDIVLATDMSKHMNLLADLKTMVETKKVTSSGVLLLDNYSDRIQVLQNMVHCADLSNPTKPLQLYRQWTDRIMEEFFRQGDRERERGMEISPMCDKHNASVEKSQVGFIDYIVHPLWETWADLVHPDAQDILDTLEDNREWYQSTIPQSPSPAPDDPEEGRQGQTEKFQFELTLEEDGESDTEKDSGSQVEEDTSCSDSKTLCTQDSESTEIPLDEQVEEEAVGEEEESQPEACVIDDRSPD
# Protocol: as §1
# A portion of the human PDE4D3 coding sequence (amino acids 50 to 672 from the sequence with accession number Q08499-2) was cloned into the baculovirus expression vector pFastBac (Invitrogen) engineered to include a C-terminal His6 affinity tag to aid in purification as described in Seeger, T. F. et al., Brain Research 985 (2003) 113-126. The recombinant Bacmid was isolated and used to transfect insect cells to generate a viral stock. To generate cell paste for purification, insect cells were infected and cells were harvested 72 hours after infection. Insect cell paste was lysed and after centrifugation, the supernatant was chromatographed on Ni-NTA agarose (Qiagen) as described in Seeger, T. F. et al., Brain Research 985 (2003) 113-126. Ni-NTA agarose eluting fractions containing PDE4 were pooled, diluted with Q Buffer A (50 mM Tris HCl pH 8, 4% glycerol, 100 mM NaCl, 1 mM TCEP, Protease inhibitors EDTA-free (Roche)) to reduce NaCl to ˜200 mM, and loaded on a Q Sepharose (GE Healthcare) column. After washing with Q buffer A to baseline, PDE4D was eluted with a gradient from 10% to 60% of Buffer B (50 mM Tris HCl pH 8, 1 M NaCl, 4% glycerol, 1 mM TCEP). PDE4D fractions were analyzed by SDS-PAGE Coomassie blue staining, pooled based on purity, frozen and stored at −80° C.
# as §2
# [3] = Table 9, geometric mean of 2-9 determinations unless otherwise indicated
# [4] = Table 10, geometric mean of 2-9 determinations unless otherwise indicated
Compound,"pIC50 [1, 3]","pIC50 [2, 3]","pIC50 [1, 4]","pIC50 [2, 4]"
"COc1ccc(-c2c3n(c4cccnc24)CCN(C2CC2)C3=O)cn1 [Example 53, 8-Cyclopropyl-10-(6-methoxypyridin-3-yl)-7,8-dihydropyrido[2′,3′:4,5]pyrrolo[1,2-a]pyrazin-9(6H)-one]",8.18,6.37,,
"O=C1c2c(-n3cccn3)c3ncccc3n2CCN1C1CC1 [Example 92, 8-Cyclopropyl-10-(1H-pyrazol-1-yl)-7,8-dihydropyrido[2′,3′:4,5]pyrrolo[1,2-a]pyrazin-9(6H)-one]",,,4.82,< 4.52
"COc1ncc(-c2c3n(c4nccnc24)CCN(C2CC2)C3=O)cn1 [Example 87, 8-Cyclopropyl-10-(2-methoxypyrimidin-5-yl)-7,8-dihydropyrrolo[1,2-a:4,5-b′]dipyrazin-9(6H)-one]",,,5.58,< 4.54
"O=C1c2c(-c3ccc(Cl)cc3)c3ncccc3n2CCN1c1nnc[nH]1 [Example 5, 10-(4-Chlorophenyl)-8-(4H-1,2,4-triazol-3-yl)-7,8-dihydropyrido[2′,3′:4,5]pyrrolo[1,2-a]pyrazin-9(6H)-one]",8.23,6.32,,
"COc1cc(-c2c3n(c4cccnc24)CCN(C2CC2)C3=O)c(F)cc1Cl [Example 15, 10-(4-Chloro-2-fluoro-5-methoxyphenyl)-8-cyclopropyl-7,8-dihydropyrido[2′,3′: 4,5]pyrrolo[1,2-a]pyrazin-9(6H)-one]",8.16,6.35,,
"O=C1c2c(-c3ccsc3)c3ncccc3n2CCN1C1CC1 [Example 39, 8-Cyclopropyl-10-(thiophen-3-yl)-7,8-dihydropyrido[2′,3′:4,5]pyrrolo[1,2-a]pyrazin-9(6H)-one]",7.10,5.76,,
"Cc1ccc(-c2c3n(c4nccnc24)CCN(C2CC2)C3=O)cn1 [Example 83, 8-Cyclopropyl-10-(6-methylpyridin-3-yl)-7,8-dihydropyrrolo[1,2-a:4,5-b′]dipyrazin-9(6H)-one]",,,4.81,< 4.53
"COc1ncc(-c2c3n(c4cncnc24)CCN(C2CC2)C3=O)cn1 [Example 89, 8-Cyclopropyl-10-(2-methoxypyrimidin-5-yl)-7,8-dihydropyrazino[1′,2′:1,5]pyrrolo[3,2-d]pyrimidin-9(6H)-one]",,,5.53,< 4.52
"Cc1cc(Cl)ccc1-c1c2n(c3cccnc13)CCN(C1CC1)C2=O [Example 56, 10-(4-Chloro-2-methylphenyl)-8-cyclopropyl-7,8-dihydropyrido[2′,3′:4,5]pyrrolo[1,2-a]pyrazin-9(6H)-one]",8.26,6.60,,
"N#Cc1ccc(-c2c3n(c4cccnc24)CCN(C2CC2)C3=O)cc1 [Example 43, 4-(8-Cyclopropyl-9-oxo-6,7,8,9-tetrahydropyrido[2′,3′:4,5]pyrrolo[1,2-a]pyrazin-10-yl)benzonitrile]",7.58,5.83,,
"O=c1c2c(-c3ccc(Cl)cc3)c3ncccc3n2ccn1-c1nnc[nH]1 [Example 6, 10-(4-Chlorophenyl)-8-(4H-1,2,4-triazol-3-yl)pyrido[2′,3′:4,5]pyrrolo[1,2-a]pyrazin-9(8H)-one]",8.08,5.57,,
"CC(=O)N1CCn2c(c(-c3ccc(Cl)cc3)c3ncccc32)C1=O [Example 78, 8-Acetyl-10-(4-chlorophenyl)-7,8-dihydropyrido[2′,3′:4,5]pyrrolo[1,2-a]pyrazin-9(6H)-one]",,,7.23,7.51
"CCCN1CCn2c(c(-c3ccc(Cl)cc3)c3ncccc32)C1=O [Example 17, 10-(4-Chlorophenyl)-8-propyl-7,8-dihydropyrido[2′,3′:4,5]pyrrolo[1,2-a]pyrazin-9(6H)-one]",9.00,7.09,,
"O=C1NCCn2c1c(-c1ccc(Cl)cc1)c1ncccc12 [Example 19, 10-(4-Chlorophenyl)-7,8-dihydropyrido[2′,3′:4,5]pyrrolo[1,2-a]pyrazin-9(6H)-one]",7.73,5.80,,
